The source of these data is patent US4873243A, “Derivatives of 3-imino-pyridazine, process for obtaining them and pharmaceutical compositions containing them” (SANOFI, priority 1985, dated 1989).

For data set [1], the target named is GABA post-synaptic receptor. As to the kind of experiment: Displacement of tritiated GABA from its post-synaptic receptor (Enna and Snyder method), suspension of synaptic membrane. It counts as binding. The settings on record: in vitro, tritiated GABA 2.9 nM final concentration. As for the experimental part:
The therapeutic activity of the products according to the invention has been studied.
The study was carried out in accordance with the method of ENNA and SNYDER (Brain Research 100, 81-97, 1975). The experiment was carried out in vitro in the presence of a suspension of synaptic membrane and tritiated GABA at a final concentration of 2.9 nM.
The results are expressed in Inhibit Concentration 50 (IC50), i.e. the micromolar concentration which inhibits 50% of the fixation of the GABA on its post-synaptic receptor.

In data set [2] the test system is reserpine-induced ptosis in the mouse. As to the kind of experiment: Antagonism of reserpine-induced ptosis in the mouse. It counts as in vivo. The note with it: 100 mg/kg intraperitoneal; reserpine 2 mg/kg intravenous at the same time; female mice; one hour after administration. As to the method:
The anti-depressant properties of the products according to the invention have been studied in the animal. The anti-depressant activity was assessed in the test of antagonism of reserpine-induced ptosis in the mouse.
The study was carried out on batches of 10 female mice weighing 20±1 g. The products to be studied were administered by the intraperitoneal route at the same time as the reserpine by the intravenous route at the dose of 2 mg/kg.
In parallel, a control batch received only the vehicle of administration of the product to be studied and the reserpine.
One hour after administration, the animals were observed individually. All the animals of the control batch presented ptosis. For the treated batches, the animals not presenting ptosis were counted and the percentage of the animals where the ptosis was antagonized were determined.

A further data set concerns mouse. As to the kind of experiment: Acute toxicity in the mouse. Format: in vivo. The settings on record: 100 mg/kg intraperitoneal. The text has this:
The products according to the invention may be administered by the oral route or by the injectable route.

Where [3] appears, read: read-out: IC50 (concentration which inhibits 50% of the fixation of the GABA on its post-synaptic receptor).

Where a name gives a salt, the structure may show the parent alone. Read-outs that look alike come from different tables or passages of the source.

As for `Cc1cc(-c2ccccc2)nn(Cc2cc(O)no2)c1=N` [SR 95538, 2-[(3-hydroxy 5-isoxazolyl)methyl]-3-imino-4-methyl-6-phenyl-2,3-dihydro-pyridazine, hydrobromide], the IC50 in data set [1] (setting [3]) was found to be 1 µM. Moreover, the “animals in which ptosis was antagonized (inhibits ptosis)” value in data set [2] was 30%. The “sign of acute toxicity” value in the data set on mouse is “no sign of acute toxicity”.
Turning to `N=c1ccc(-c2ccccc2)nn1Cc1cc(O)no1` [SR 95812], in data set [1] (listed as 95812, read-out: IC50 (concentration which inhibits 50% of the fixation of the GABA on its post-synaptic receptor)), the IC50 stood at 1.2 µM.
As to `N=c1ccc(-c2ccccc2)nn1Cc1cc(O)no1` [SR 95884], the IC50 in data set [1] (listed as 95884, read-out: IC50 (concentration which inhibits 50% of the fixation of the GABA on its post-synaptic receptor)) stood at 1.8 µM.
As to `N=c1ccc(-c2ccc(Cl)cc2)nn1Cc1cc(O)ns1` [SR 95885, 2-[(3-hydroxy-5-isothiazolyl)methyl]-3-imino-6-(4-chloro-phenyl)-2,3-dihydro-pyridazine, hydrobromide], the IC50 in data set [1] (setting [3]) is 0.15 µM.
As for `Cc1nn(Cc2cc(O)ns2)c(=N)cc1-c1ccccc1` [SR 95886], in data set [1] (setting [3]), the IC50 was determined as 6.6 µM.
On the same count and under the same terms, the same measure for `N=c1ccc(-c2ccsc2)nn1Cc1cc(O)no1` [SR 95893]: 1.6 µM.
As for `N=c1c2ccccc2c(-c2ccccc2)nn1Cc1cc(O)no1` [SR 95894], in data set [1] (setting [3]), the IC50 came out at 0.12 µM.
Same read-out and setting: the same measure for `N=c1ccc(-c2ccc3c(c2)OCO3)nn1Cc1cc(O)no1` [SR 95895]: 0.075 µM.
